Test results from patent US20260109732A1, “LIPID AMINES” (ModernaTX, Inc., priority 2021, published 2026).
Structures can show the parent of a compound that is named as a salt.

Experiments:
[1] = Diameter and PDI from DLS measurements of mRNA nanoparticles with lipid amines; assay type: physicochemical
Procedure, shortened: (§1)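 DLS gave size and PDI, and Ribogreen gave encapsulation, for luciferase- or CFTR-mRNA nanoparticles (N:P 4.93). Particles came from IL1/DSPC/cholesterol/PEG-DMG-2K mixed at pH 4, mRNA-loaded, neutralized with TRIS pH 8.12, and then treated with lipid amine SA50 in pH 7.5 buffer.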

[2] = Encapsulation of mRNA nanoparticles with lipid amines using Ribogreen assay; assay type: physicochemical
Procedure, shortened: as §1

HeLa cells [3] = test: Luciferase Protein Expression Assay in HeLa Cells; assay type: cell-based, Human; conditions: LNPs encapsulating Luciferase mRNA, 25 ng per well, N=4 wells; 5 h serum-free then 24 h; ONE-Glo
Procedure, shortened: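 Luminescence output, average RLU across N=4 wells, was measured with ONE-Glo after cell lysis. Before that, HeLa cells were exposed to 25 ng/well luciferase-mRNA nanoparticles (PBS control) for 5 h serum-free, then cultured overnight (24 h) in complete MEM.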

HeLa cells [4] = test: CFTR Protein Expression Assay in HeLa Cells; assay type: cell-based, Human; conditions: LNPs encapsulating CFTR mRNA, N=4 wells; 5 h serum-free then 24 h; immunofluorescence vs PBS control
Procedure, shortened: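 Readout is fold-change in per-cell CFTR immunofluorescence intensity (488 nm, confocal imaging) relative to PBS-treated cells, from 4 replicate wells. LNPs encapsulating CFTR mRNA were applied serum-free for 5 h, followed by 24 h in complete medium before PFA fixation.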

[5] = CFTR mRNA nanoparticle with lipid amine
[6] = Luciferase mRNA nanoparticle modified with lipid amine

Structure (SMILES)	Diameter (nm) [1, 5]	PDI [1, 5]	Diameter (nm) [1, 6]	PDI [1, 6]	% Encapsulation (Ribogreen) [2, 5]	% Encapsulation (Ribogreen) [2, 6]	Average Relative Light Units ± Standard Deviation (HeLa cells [3])	Average fold-change in CFTR signal intensity per cell compared to buffer control ± standard deviation (HeLa cells [4])
CC(C)CCC[C@@H](C)[C@H]1CC[C@H]2[C@@H]3CC=C4C[C@@H](OC(=O)[C@H](CCCCN)NCCCCCCN)CC[C@]4(C)[C@H]3CC[C@]12C.Cl.Cl.Cl [SA131, (3S,8S,9S,10R,13R,14S,17R)-10,13-dimethyl-17-((R)-6-methylheptan-2-yl)-2,3,4,7,8,9,10,11,12,13,14,15,16,17-tetradecahydro-1H-cyclopenta[a]phenanthren-3-yl (6-aminohexyl)-L-lysinate trihydrochloride]	83.8 nm	0.14	72 nm	0.12	98.6%	99.6%	40915.5 ± 4983.3 Relative Light Units	10.8 ± 0.5 fold-change
CC(C)CCC[C@@H](C)[C@H]1CC[C@H]2[C@@H]3CC=C4C[C@@H](OC(=O)N(CCCCNCCC(C)(C)N)CCC(C)(C)N)CC[C@]4(C)[C@H]3CC[C@]12C [SA78, (3S,8S,9S,10R,13R,14S,17R)-10,13-dimethyl-17-((R)-6-methylheptan-2-yl)-2,3,4,7,8,9,10,11,12,13,14,15,16,17-tetradecahydro-1H-cyclopenta[a]phenanthren-3-yl (3-amino-3-methylbutyl)(4-((3-amino-3-methylbutyl)amino)butyl)carbamate trihydrochloride]	87.7 nm	0.17	76 nm	0.20	100%	99.8%	14341.8 ± 3497.6 Relative Light Units	11.3 ± 0.7 fold-change
CC(C)CCC[C@@H](C)[C@H]1CC[C@H]2[C@@H]3CC=C4C[C@@H](OC(=O)N(CCCCNCC(C)(C)CN)CC(C)(C)CN)CC[C@]4(C)[C@H]3CC[C@]12C [SA77, (3S,8S,9S,10R,13R,14S,17R)-10,13-dimethyl-17-((R)-6-methylheptan-2-yl)-2,3,4,7,8,9,10,11,12,13,14,15,16,17-tetradecahydro-1H-cyclopenta[a]phenanthren-3-yl (3-amino-2,2-dimethylpropyl)(4-((3-amino-2,2-dimethylpropyl)amino)butyl)carbamate trihydrochloride]	83.9 nm	0.13	74 nm	0.20	100%	98.2%	39191.9 ± 4319 Relative Light Units	12.2 ± 1.3 fold-change
CC[C@H](CC[C@@H](C)[C@H]1CC[C@H]2[C@@H]3CC=C4C[C@@H](OC(=O)CCCCC(=O)N(CCCN)CCCCNCCCN)CC[C@]4(C)[C@H]3CC[C@]12C)C(C)C [SA90, (3S,8S,9S,10R,13R,14S,17R)-17-((2R,5R)-5-ethyl-6-methylheptan-2-yl)-10,13-dimethyl-2,3,4,7,8,9,10,11,12,13,14,15,16,17-tetradecahydro-1H-cyclopenta[a]phenanthren-3-yl 6-((3-aminopropyl)(4-((3-aminopropyl)amino)butyl)amino)-6-oxohexanoate trihydrochloride]	84.6 nm	0.14	76 nm	0.19	98.1%	99.6%	9337.4 ± 3055.2 Relative Light Units	4.2 ± 0.4 fold-change
CCC(N)(CC)CCNCCCCN(CCC(N)(CC)CC)C(=O)O[C@H]1CC[C@@]2(C)C(=CC[C@H]3[C@@H]4CC[C@H]([C@H](C)CCCC(C)C)[C@@]4(C)CC[C@@H]32)C1.Cl.Cl.Cl [SA133, (3S,8S,9S,10R,13R,14S,17R)-10,13-dimethyl-17-((R)-6-methylheptan-2-yl)-2,3,4,7,8,9,10,11,12,13,14,15,16,17-tetradecahydro-1H-cyclopenta[a]phenanthren-3-yl (3-amino-3-ethylpentyl)(4-((3-amino-3-ethylpentyl)amino)butyl)carbamate trihydrochloride]	73.5 nm	0.11	73 nm	0.17	99.4%	99.0%	26696.2 ± 5831.4 Relative Light Units	18.5 ± 0.8 fold-change
CC[C@H](CC[C@@H](C)[C@H]1CC[C@H]2[C@@H]3CC=C4C[C@@H](OC(=O)N(CCCN)CCCCCCCCCCN)CC[C@]4(C)[C@H]3CC[C@]12C)C(C)C [SA96, (3S,8S,9S,10R,13R,14S,17R)-17-((2R,5R)-5-Ethyl-6-methylheptan-2-yl)-10,13-dimethyl-2,3,4,7,8,9,10,11,12,13,14,15,16,17-tetradecahydro-1H-cyclopenta[a]phenanthren-3-yl (10-aminodecyl)(3-aminopropyl)carbamate dihydrochloride]	82.3 nm	0.12	71 nm	0.15	98.9%	99.6%	17172.8 ± 2176 Relative Light Units	5.2 ± 0.7 fold-change
CC(C)CCC[C@@H](C)[C@H]1CC[C@H]2[C@@H]3CC=C4C[C@@H](OC(=O)CN(CCCCCCCCN)C(=O)[C@@H](N)CCCN)CC[C@]4(C)[C@H]3CC[C@]12C.Cl.Cl.Cl [SA129, (3S,8S,9S,10R,13R,14S,17R)-10,13-dimethyl-17-((R)-6-methylheptan-2-yl)-2,3,4,7,8,9,10,11,12,13,14,15,16,17-tetradecahydro-1H-cyclopenta[a]phenanthren-3-yl N-(8-aminooctyl)-N-((S)-2,5-diaminopentanoyl)glycinate trihydrochloride]	81.6 nm	0.12	70 nm	0.16	96.2%	99.5%	144.8 ± 21.6 Relative Light Units	1.0 ± 0 fold-change
CC(C)CCC[C@@H](C)[C@H]1CC[C@H]2[C@@H]3CC=C4C[C@@H](OC(=O)N(CCCCNCC(O)CN)CC(O)CN)CC[C@]4(C)[C@H]3CC[C@]12C (stereo partly drawn) [SA88, (3S,8S,9S,10R,13R,14S,17R)-10,13-dimethyl-17-((R)-6-methylheptan-2-yl)-2,3,4,7,8,9,10,11,12,13,14,15,16,17-tetradecahydro-1H-cyclopenta[a]phenanthren-3-yl (3-amino-2-hydroxypropyl)(4-((3-amino-2-hydroxypropyl)amino)butyl)carbamate trihydrochloride]	89.4 nm	0.19	75 nm	0.13	99.1%	99.8%	17105.3 ± 7097.3 Relative Light Units	4.5 ± 0.2 fold-change
